These results are taken from patent US12306176B2, “Microfluidic bi-directional migration assay” (Ohio State Innovation Foundation, priority 2017, dated 2025).

Test [1] has as its system succinate dehydrogenase (SDH). Description: SDH activity colorimetric kinetic assay. The settings on record: EGF 25 ng/mL, 12 hours; not significant. It counts as cell-based, human. The text has this:
To investigate whether iEF has an effect on metabolic function of MDA-MB-231 cells, the activity levels of lactate dehydrogenase (LDH) and succinate dehydrogenase (SDH) were examined. LDH is an enzyme that catalyzes the interconversion of pyruvate to lactate as part of the glycolysis chain (Pelicano H, et al. (2006) Oncogene 25 (34):4633). SDH is an enzyme within Complex II of the mitochondria that is utilized in both the tricarboxylic acid (TCA) cycle as well as oxidative phosphorylation (OXPHOS) (Gottlieb E & Tomlinson IP (2005) Nat Rev Cancer. 5 (11):857). As part of the TCA cycle, SDH catalyzes the oxidation of succinate to fumarate, and as part of OXPHOS, SDH transfers two electrons from flavin adenine dinucleotide into the electron transport chain (Gottlieb E & Tomlinson IP (2005) Nat Rev Cancer. 5 (11):857). To determine whether LDH or SDH activity levels were changing, colorimetric kinetic assays were employed. […]
1×10^6 cells/well were plated in 6 well plates in growth media for 12 hours followed by migration media (0.1% FBS) for an additional 12 hours. […] The LDH activity assay kit (Sigma-Aldrich, MAK066) and the SDH activity colorimetric assay kit (Sigma-Aldrich, MAK197) were used to quantify LDH and SDH activity respectively. […] For quantification of LDH and SDH, the protocols provided by the supplier were followed. […]

Another test concerns MDA-MB-231 cells. The test is described as follows: F-actin polarization ratio in the MBDM assay. The class given is cell-based, human. To be noted: EGF gradient, absence of iEFs (untreated 0.34). As to the method:
This section reports on the effects of iEFs on the distribution of F-actin in cells migrating along the microtracks of the MBDM assay. To quantify the distribution of F-Actin, a quantity referred to herein as the polarization ratio (PR) was introduced, which has values between 0 and 1.
Cells in the devices were fixed in 3.7 (wt/wt) paraformaldehyde solution for 30 minutes. They were subsequently washed with 1×PBS three times. For F-actin labeling, we blocked the cells for 60 minutes in blocking buffer (0.1% Triton-X and 5% donkey serum in 1×PBS). Cells were then treated with Alexa Fluoro® 488-conjugated or 555-conjugated phalloidin for 60 minutes (1:40, ThermoFisher), again followed by a 1×PBS wash (three times, 10 minutes each). […]
Actin immunofluorescence images were acquired using a Nikon TE200 epifluorescence microscope (Nikon Instruments Inc.) under a 20× objective. The immunofluorescence images were quantified using custom MATLAB scripts. The custom MATLAB script calculated the geometric center for an individual cell, i.e. the arithmetic mean of the locations of all pixels comprising the cell area. Then the distance from this geometric center and angle (0°≤θ≤360°) of every pixel relative to a horizontal axis (θ=0°) was calculated. […] A moment of intensity is calculated for individual pixels and this value is summed for all the pixels in every individual sector. […]

With epidermal growth factor [EGF], the “increase of SDH activity” value in test [1] stood at 23%. Moreover, in the test with MDA-MB-231 cells, the “center of the F-actin polarization ratio (PR) distribution” value is on record as 0.62.
